Test results as given in BindingDB's records for doi:10.1016/s0968-0896(99)00127-3 (Sankyo, 1999).

Target: T1, Dimer of Gag-Pol polyprotein [489-587] (Human immunodeficiency virus 1, UniProt P12497)
T1 construct: 489-587
Experiment: Protease Inhibition Assay
Experimental: The inhibitory activities of the compounds toward HIV-1 PR were determined by sodium dodecyl sulfate-polyacrylamide gel electrophoresis (SDS-PAGE) assay. The IC50 values of active compounds were determined using the partially purified protease and the synthetic substrate Ac-Ser-Gln-AsnTyr-Pro-Ile-Val-NH2.

| Compound | IC50 [nM] |
| --- | --- |
| Cc1ccc(C(=O)N[C@@H](Cc2ccccc2)[C@H](O)C(=O)N2C[C@@H](Cl)C[C@H]2C(=O)NC(C)(C)C)c(C)c1O | 8.2 |
| Cc1c(O)cc(F)cc1C(=O)N[C@@H](Cc1ccccc1)[C@H](O)C(=O)N1C[C@@H](Cl)C[C@H]1C(=O)NC(C)(C)C | 1.7 |
| Cc1ccc(C(=O)N[C@@H](Cc2cccc(C(F)(F)F)c2)[C@H](O)C(=O)N2C[C@@H](Cl)C[C@H]2C(=O)NC(C)(C)C)c(C)c1O | 3.5 |
| Cc1cc(O)c(C)c(C(=O)N[C@@H](Cc2cccc(C(F)(F)F)c2)[C@H](O)C(=O)N2C[C@@H](Cl)C[C@H]2C(=O)NC(C)(C)C)c1 | 1.9 |
| Cc1ccc(O)c(C)c1C(=O)N[C@@H](Cc1ccc(C(F)(F)F)cc1)[C@H](O)C(=O)N1C[C@@H](Cl)C[C@H]1C(=O)NC(C)(C)C | 3.9 |
| Cc1cccc(C[C@H](NC(=O)c2cc(C)cc(O)c2C)[C@H](O)C(=O)N2C[C@@H](Cl)C[C@H]2C(=O)NC(C)(C)C)c1 | 1.3 |
| Cc1cccc(C[C@H](NC(=O)c2c(C)ccc(O)c2C)[C@H](O)C(=O)N2C[C@@H](Cl)C[C@H]2C(=O)NC(C)(C)C)c1 | 3.4 |
| Cc1ccc(C[C@H](NC(=O)c2c(C)ccc(O)c2C)[C@H](O)C(=O)N2C[C@@H](Cl)C[C@H]2C(=O)NC(C)(C)C)cc1 | 3.6 |
| Cc1ccc(C(=O)N[C@@H](Cc2ccc3ccccc3c2)[C@H](O)C(=O)N2C[C@@H](Cl)C[C@H]2C(=O)NC(C)(C)C)c(C)c1O | 3.2 |
| Cc1cc(O)c(C)c(C(=O)N[C@@H](Cc2ccc3sccc3c2)[C@H](O)C(=O)N2C[C@@H](Cl)C[C@H]2C(=O)NC(C)(C)C)c1 [(2S,4S)-1-[(2S,3S)-4-(1-benzothiophen-5-yl)-2-hydroxy-3-[(3-hydroxy-2,5-dimethylphenyl)formamido]butanoyl]-N-tert-butyl-4-chloropyrrolidine-2-carboxamide] | 1.5 |
| Cc1c(O)cccc1C(=O)N[C@@H](Cc1ccc2sccc2c1)[C@H](O)C(=O)N1C[C@@H](Cl)C[C@H]1C(=O)NC(C)(C)C [(2S,4S)-1-[(2S,3S)-4-(1-benzothiophen-5-yl)-2-hydroxy-3-[(3-hydroxy-2-methylphenyl)formamido]butanoyl]-N-tert-butyl-4-chloropyrrolidine-2-carboxamide] | 1.4 |
| Cc1ccccc1C[C@H](NC(=O)c1ccc(C)c(O)c1C)[C@H](O)C(=O)N1C[C@@H](Cl)C[C@H]1C(=O)NC(C)(C)C [(2S,4S)-N-tert-butyl-4-chloro-1-[(2S,3S)-2-hydroxy-3-[(3-hydroxy-2,4-dimethylphenyl)formamido]-4-(2-methylphenyl)butanoyl]pyrrolidine-2-carboxamide] | 49.9 |
| Cc1ccc(C[C@H](NC(=O)c2ccc(C)c(O)c2C)[C@H](O)C(=O)N2C[C@@H](Cl)C[C@H]2C(=O)NC(C)(C)C)cc1 [(2S,4S)-N-tert-butyl-4-chloro-1-[(2S,3S)-2-hydroxy-3-[(3-hydroxy-2,4-dimethylphenyl)formamido]-4-(4-methylphenyl)butanoyl]pyrrolidine-2-carboxamide] | 8.6 |
| Cc1ccc(C(=O)N[C@@H](Cc2ccc(C(F)(F)F)cc2)[C@H](O)C(=O)N2C[C@@H](Cl)C[C@H]2C(=O)NC(C)(C)C)c(C)c1O [(2S,4S)-N-tert-butyl-4-chloro-1-[(2S,3S)-2-hydroxy-3-[(3-hydroxy-2,4-dimethylphenyl)formamido]-4-[4-(trifluoromethyl)phenyl]butanoyl]pyrrolidine-2-carboxamide] | 6.3 |
| Cc1cc(O)c(C)c(C(=O)N[C@@H](Cc2ccc3ccccc3c2)[C@H](O)C(=O)N2C[C@@H](Cl)C[C@H]2C(=O)NC(C)(C)C)c1 [(2S,4S)-N-tert-butyl-4-chloro-1-[(2S,3S)-2-hydroxy-3-[(3-hydroxy-2,5-dimethylphenyl)formamido]-4-(naphthalen-2-yl)butanoyl]pyrrolidine-2-carboxamide] | 0.8 |
